Reference: ChEMBL document CHEMBL1201862, “PubChem BioAssay data set” (2004)
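Briefly, cells in 96-well plates were exposed to five compound concentrations for 48 h, and endpoints were estimated by linear interpolation. GI50 is the concentration that inhibits growth by half.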 Active and inactive are the calls of the source. No stated cut-off is given here; in the data, active = GI50 up to about 1.1 µM and inactive = higher.

Legend:
Assay in all cases: inhibition of tumour cell growth, NCI panel, 48 h
Hs-578T = system: Hs-578T
UO-31 = system: UO-31
DU-145 = system: DU-145
HCT-116 = system: HCT-116
NCI-H226 = system: NCI-H226
HOP-92 = system: HOP-92
A549 = system: A549
HCT-15 = system: HCT-15
CCRF-CEM = system: CCRF-CEM
SK-MEL-5 = system: SK-MEL-5
OVCAR-8 = system: OVCAR-8
SK-MEL-28 = system: SK-MEL-28
SW-620 = system: SW-620
NCI/ADR-RES = system: NCI/ADR-RES
PC-3 = system: PC-3
SNB-75 = system: SNB-75
MDA-MB-435 = system: MDA-MB-435
OVCAR-5 = system: OVCAR-5
SR = system: SR
SF-268 = system: SF-268

SMILES	GI50 (Hs-578T)	GI50 (UO-31)	GI50 (DU-145)	GI50 (HCT-116)	GI50 (NCI-H226)	GI50 (HOP-92)	GI50 (A549)	GI50 (HCT-15)	GI50 (CCRF-CEM)	GI50 (SK-MEL-5)	GI50 (OVCAR-8)	GI50 (SK-MEL-28)	GI50 (SW-620)	GI50 (NCI/ADR-RES)	GI50 (PC-3)	GI50 (SNB-75)	GI50 (MDA-MB-435)	GI50 (OVCAR-5)	GI50 (SR)	GI50 (SF-268)
C[C@]12CC[C@@H]3c4cc(OCC(F)(F)F)c(O)cc4CC[C@H]3[C@@H]1CC[C@@H]2O	2.83 µM (inactive)	8.65 µM (inactive)	6.3 µM (inactive)	1.9 µM (inactive)	7.05 µM (inactive)	9.31 µM (inactive)	5.41 µM (inactive)	0.762 µM	1.51 µM (inactive)	3.38 µM (inactive)	4.83 µM (inactive)	11.8 µM (inactive)	1.05 µM (active)	2.24 µM (inactive)	2.28 µM (inactive)	1.63 µM (inactive)	0.284 µM (active)	18.7 µM (inactive)	0.335 µM (active)	9.29 µM (inactive)
C[C@]12CCC(=O)C=C1CC[C@@H]1[C@@H]2[C@@H](O)C[C@@]2(C)[C@H]1CC[C@]2(O)C(=O)CO [HYDROCORTISONE]	> 100 µM (inactive)	> 100 µM (inactive)	> 100 µM (inactive)	> 100 µM (inactive)	> 100 µM (inactive)	> 100 µM (inactive)	> 100 µM (inactive)	> 100 µM	18.7 µM (inactive)	> 100 µM (inactive)	> 100 µM (inactive)	> 100 µM (inactive)	> 100 µM (inactive)	> 100 µM (inactive)	> 100 µM (inactive)	> 100 µM (inactive)	> 100 µM (inactive)	> 100 µM (inactive)	> 100 µM (inactive)	> 100 µM (inactive)
CCCCCCCC(=O)OC[n+]1ccc(-c2c(COC(=O)NC(C)C)c(COC(=O)NC(C)C)c3n2CCC3)cc1	52.6 µM (inactive)	42.4 µM (inactive)	23.4 µM (inactive)	25.5 µM (inactive)	> 78.5 µM (inactive)	26.4 µM (inactive)	63.8 µM (inactive)	52.4 µM	13.5 µM (inactive)	34.8 µM (inactive)	43.1 µM (inactive)	> 100 µM (inactive)	23.2 µM (inactive)	53.8 µM (inactive)	> 65.2 µM (inactive)	42.3 µM (inactive)	69 µM (inactive)	> 96.6 µM (inactive)	5.65 µM (inactive)	25.8 µM (inactive)
Cc1cc(C)c(S(=O)(=O)N2CCCN(S(=O)(=O)c3c(C)cc(C)cc3C)OCCCON(S(=O)(=O)c3c(C)cc(C)cc3C)CCCN(S(=O)(=O)c3c(C)cc(C)cc3C)OCCCO2)c(C)c1	51.8 µM (inactive)	> 100 µM (inactive)	> 100 µM (inactive)	> 100 µM (inactive)	> 100 µM (inactive)	36.1 µM (inactive)	> 100 µM (inactive)	> 100 µM	> 100 µM (inactive)	> 100 µM (inactive)	> 100 µM (inactive)	> 100 µM (inactive)	> 100 µM (inactive)	> 100 µM (inactive)	> 100 µM (inactive)	70.3 µM (inactive)	> 100 µM (inactive)	> 100 µM (inactive)	> 100 µM (inactive)	> 100 µM (inactive)
CO/C=C/C=C(\C#N)C(=O)OC	> 100 µM (inactive)	> 100 µM (inactive)	> 100 µM (inactive)	> 100 µM (inactive)	> 100 µM (inactive)	> 100 µM (inactive)	> 100 µM (inactive)	> 100 µM	26.3 µM (inactive)	> 100 µM (inactive)	> 100 µM (inactive)	> 100 µM (inactive)	> 100 µM (inactive)	> 100 µM (inactive)	> 100 µM (inactive)	60.3 µM (inactive)	> 100 µM (inactive)	> 100 µM (inactive)	> 100 µM (inactive)	> 100 µM (inactive)
COc1ccc(CCNC(=O)CCCCCO)cc1OC	> 100 µM (inactive)	> 100 µM (inactive)	> 100 µM (inactive)	> 100 µM (inactive)	> 100 µM (inactive)	> 100 µM (inactive)	> 100 µM (inactive)	> 100 µM	> 100 µM (inactive)	> 100 µM (inactive)	> 100 µM (inactive)	> 100 µM (inactive)	> 100 µM (inactive)	> 100 µM (inactive)	> 100 µM (inactive)	> 100 µM (inactive)	> 100 µM (inactive)	> 100 µM (inactive)	> 100 µM (inactive)	> 100 µM (inactive)
CCOC(=O)c1c(C)n(CCN2CCN(C)CC2)c2ccc(OC)cc12	55.5 µM (inactive)	35.1 µM (inactive)	> 100 µM (inactive)	38.4 µM (inactive)	29.7 µM (inactive)	14 µM (inactive)	> 100 µM (inactive)	28.8 µM	24 µM (inactive)	16.5 µM (inactive)	> 100 µM (inactive)	16.5 µM (inactive)	37.5 µM (inactive)	69.7 µM (inactive)	34 µM (inactive)	24.8 µM (inactive)	19.9 µM (inactive)	61.4 µM (inactive)	20 µM (inactive)	53.7 µM (inactive)
O=C1CSC(c2ccccc2O)N1c1ccc(Oc2ccc(Cl)cc2)c(Cl)c1 (stereo not given)	14.9 µM (inactive)	5.94 µM (inactive)	21.1 µM (inactive)	15.3 µM (inactive)	30.8 µM (inactive)	18.7 µM (inactive)	18.4 µM (inactive)	19.5 µM	17.6 µM (inactive)	17.2 µM (inactive)	25.5 µM (inactive)	19.5 µM (inactive)	31.4 µM (inactive)	20.6 µM (inactive)	22.3 µM (inactive)	17.6 µM (inactive)	21.5 µM (inactive)	21.6 µM (inactive)	14.3 µM (inactive)	12.9 µM (inactive)
